Reference: PubChem BioAssay AID248 (DTP/NCI, 2004)
Values joined by “and” are separate entries in the source; they are usually repeats but may differ in a detail not shown here. Equal values may be shown once. Toxic doses and inconclusive results are not listed. No stated cut-off is given here; in the data, active means T/C of 150% or more; inactive means T/C below 125%.

Test system: L1210 leukemia ip in BDF1 mice, survival T/C
Assay: NCI In Vivo Anticancer Drug Screen. Data for tumor model L1210 Leukemia (intraperitoneal) in B6D2F1 (BDF1) mice
Conditions: higher = longer survival
In short: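 Each compound was tested against a transplantable tumor grown in mice. The endpoint was survival, with treated animals benchmarked against vehicle controls as a simple ratio.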

[1] = endpoint: mean survival time, dose: 100.0 mg/kg/injection, schedule: Q01DX001 (ip), vehicle: saline
[2] = endpoint: mean survival time, dose: 200.0 mg/kg/injection, schedule: Q01DX001 (ip), vehicle: saline
[3] = endpoint: mean survival time, dose: 400.0 mg/kg/injection, schedule: Q01DX001 (ip), vehicle: saline
[4] = endpoint: mean survival time, dose: 100.0 mg/kg/injection, schedule: Q01DX001 (ip), vehicle: Klucel (hydroxypropylcellulose) (HPC)
[5] = endpoint: mean survival time, dose: 200.0 mg/kg/injection, schedule: Q01DX001 (ip), vehicle: Klucel (hydroxypropylcellulose) (HPC)
[6] = endpoint: mean survival time, dose: 100.0 mg/kg/injection, schedule: Q01DX009 (ip), vehicle: saline with Tween-80
[7] = endpoint: mean survival time, dose: 100.0 mg/kg/injection, schedule: Q04DX003 (ip), vehicle: saline with Tween-80
[8] = endpoint: mean survival time, dose: 200.0 mg/kg/injection, schedule: Q01DX009 (ip), vehicle: saline with Tween-80
[9] = endpoint: mean survival time, dose: 200.0 mg/kg/injection, schedule: Q04DX003 (ip), vehicle: saline with Tween-80
[10] = endpoint: mean survival time, dose: 400.0 mg/kg/injection, schedule: Q04DX003 (ip), vehicle: saline with Tween-80
[11] = endpoint: mean survival time, dose: 100.0 mg/kg/injection, schedule: Q04DX003 (ip), vehicle: Klucel (hydroxypropylcellulose) (HPC)
[12] = endpoint: mean survival time, dose: 200.0 mg/kg/injection, schedule: Q04DX003 (ip), vehicle: Klucel (hydroxypropylcellulose) (HPC)
[13] = endpoint: mean survival time, dose: 400.0 mg/kg/injection, schedule: Q04DX003 (ip), vehicle: Klucel (hydroxypropylcellulose) (HPC)
[14] = endpoint: mean survival time, dose: 100.0 mg/kg/injection, schedule: Q01DX001 (ip), vehicle: carboxymethylcellulose (CMC)
[15] = endpoint: mean survival time, dose: 200.0 mg/kg/injection, schedule: Q01DX001 (ip), vehicle: carboxymethylcellulose (CMC)
[16] = endpoint: mean survival time, dose: 400.0 mg/kg/injection, schedule: Q01DX001 (ip), vehicle: carboxymethylcellulose (CMC)
[17] = endpoint: mean survival time, dose: 100.0 mg/kg/injection, schedule: Q01DX009 (ip), vehicle: Klucel (hydroxypropylcellulose) (HPC)
[18] = endpoint: mean survival time, dose: 200.0 mg/kg/injection, schedule: Q01DX009 (ip), vehicle: Klucel (hydroxypropylcellulose) (HPC)
[19] = endpoint: mean survival time, dose: 400.0 mg/kg/injection, schedule: Q01DX009 (ip), vehicle: Klucel (hydroxypropylcellulose) (HPC)

Measured: T/C

CN(C)C1C(=O)C(C(N)=O)=C(O)C2(O)C(=O)C3=C(O)c4c(O)cccc4C(C)(O)C3CC12 (stereo unspecified)
inactive: [1] 94 % of control | [2] 96 % of control | [3] 100 % of control | endpoint: median survival time, dose: 20.0 mg/kg/injection, schedule: Q04DX003 (ip), vehicle: water 103 % of control and 105 % of control | endpoint: median survival time, dose: 40.0 mg/kg/injection, schedule: Q04DX003 (ip), vehicle: water 97 % of control and 100 % of control | endpoint: median survival time, dose: 80.0 mg/kg/injection, schedule: Q04DX003 (ip), vehicle: water 97 % of control and 100 % of control | endpoint: median survival time, dose: 160.0 mg/kg/injection, schedule: Q04DX003 (ip), vehicle: water 105 % of control and 111 % of control

Nc1cccc(CCCCc2ccc(Cl)cc2Cl)c1
inactive: [4] 97 % of control | [5] 96 % of control | endpoint: mean survival time, dose: 400.0 mg/kg/injection, schedule: Q01DX001 (ip), vehicle: Klucel (hydroxypropylcellulose) (HPC) 102 % of control

O=C(NCCCCOc1ccc([N+](=O)[O-])cc1Cl)c1ccc(S(=O)(=O)F)cc1
inactive: [6] 93 % of control | [7] 92 % of control | [8] 93 % of control | [9] 93 % of control | endpoint: mean survival time, dose: 400.0 mg/kg/injection, schedule: Q01DX009 (ip), vehicle: saline with Tween-80 100 % of control | [10] 111 % of control

CCOC(=O)CCCCCCCCCCOc1ccc(C(C)=O)cc1
inactive: [11] 94 % of control | [12] 100 % of control | [13] 97 % of control

O=C1CCCC/C1=C\Sc1ccccc1
inactive: endpoint: mean survival time, dose: 100.0 mg/kg/injection, schedule: Q04DX002 (ip), vehicle: saline 95 % of control | endpoint: mean survival time, dose: 200.0 mg/kg/injection, schedule: Q04DX002 (ip), vehicle: saline 98 % of control | endpoint: mean survival time, dose: 400.0 mg/kg/injection, schedule: Q04DX002 (ip), vehicle: saline 88 % of control

COc1ccc(Oc2ccc(-c3ccccc3)cc2)cc1
inactive: [14] 98 % of control | [15] 102 % of control | [16] 96 % of control

CC(C)CC(CC(C)C)NCC(C)OC(=O)C(c1ccccc1)c1ccccc1 (stereo unspecified)
inactive: endpoint: mean survival time, dose: 75.0 mg/kg/injection, schedule: Q01DX001 (ip), vehicle: saline 102 % of control | endpoint: mean survival time, dose: 150.0 mg/kg/injection, schedule: Q01DX001 (ip), vehicle: saline 98 % of control | endpoint: mean survival time, dose: 300.0 mg/kg/injection, schedule: Q01DX001 (ip), vehicle: saline 102 % of control

CN(N=O)c1ccc(C=C2c3ccccc3-c3ccccc32)cc1
inactive: endpoint: mean survival time, dose: 50.0 mg/kg/injection, schedule: Q01DX001 (ip), vehicle: carboxymethylcellulose (CMC) 102 % of control | [14] 106 % of control | [15] 96 % of control | [16] 102 % of control

CN(C(=O)Nc1ccc(Cl)cc1[N+](=O)[O-])C1CCCCC1
inactive: [17] 92 % of control | [18] 94 % of control | [19] 97 % of control

CC1CCC(C(=O)O)(C(=O)NC(N)=O)CC1C (stereo unspecified)
inactive: endpoint: mean survival time, dose: 100.0 mg/kg/injection, schedule: Q01DX001 (ip), vehicle: steriod suspending solution 93 % of control | endpoint: mean survival time, dose: 200.0 mg/kg/injection, schedule: Q01DX001 (ip), vehicle: steriod suspending solution 110 % of control | endpoint: mean survival time, dose: 400.0 mg/kg/injection, schedule: Q01DX001 (ip), vehicle: steriod suspending solution 114 % of control

CC(=O)Nc1ccc2c(c1)C(c1ccccc1)=NCC(=O)N2
inactive: [1] 103 % of control | endpoint: mean survival time, dose: 100.0 mg/kg/injection, schedule: Q01DX Z (ip), vehicle: carboxymethylcellulose (CMC) 107 % of control | endpoint: mean survival time, dose: 100.0 mg/kg/injection, schedule: Q01DX Z (ip), vehicle: methylcellulose (MC) 100 % of control | endpoint: mean survival time, dose: 150.0 mg/kg/injection, schedule: Q01DX Z (ip), vehicle: carboxymethylcellulose (CMC) 112 % of control and 114 % of control | endpoint: mean survival time, dose: 150.0 mg/kg/injection, schedule: Q01DX Z (ip), vehicle: methylcellulose (MC) 103 % of control | [2] 103 % of control | endpoint: mean survival time, dose: 225.0 mg/kg/injection, schedule: Q01DX Z (ip), vehicle: carboxymethylcellulose (CMC) 100 % of control | endpoint: mean survival time, dose: 225.0 mg/kg/injection, schedule: Q01DX Z (ip), vehicle: methylcellulose (MC) 107 % of control | endpoint: mean survival time, dose: 337.0 mg/kg/injection, schedule: Q01DX Z (ip), vehicle: carboxymethylcellulose (CMC) 97 % of control | endpoint: mean survival time, dose: 337.0 mg/kg/injection, schedule: Q01DX Z (ip), vehicle: methylcellulose (MC) 109 % of control | [3] 91 % of control | endpoint: mean survival time, dose: 600.0 mg/kg/injection, schedule: Q01DX001 (ip), vehicle: saline 98 % of control | endpoint: mean survival time, dose: 1200.0 mg/kg/injection, schedule: Q01DX001 (ip), vehicle: saline 120 % of control | endpoint: mean survival time, dose: 2400.0 mg/kg/injection, schedule: Q01DX001 (ip), vehicle: saline 120 % of control

[O-]/[N+](=C\C=C\c1ccccc1)c1ccccc1
inactive: [17] 100 % of control | [11] 103 % of control | [18] 90 % of control | [12] 95 % of control | [19] 89 % of control | [13] 86 % of control

Cc1ccc(NC(=O)c2ccccc2-c2ccccc2C(=O)Nc2ccc(C)cc2)cc1
inactive: endpoint: mean survival time, dose: 100.0 mg/kg/injection, schedule: Q01DX001 (ip), vehicle: other 91 % of control

NC(=O)c1cc[n+](-c2ccc([N+](=O)[O-])cc2[N+](=O)[O-])cc1
inactive: endpoint: mean survival time, dose: 100.0 mg/kg/injection, schedule: Q04DX003 (ip), vehicle: saline 102 % of control | endpoint: mean survival time, dose: 200.0 mg/kg/injection, schedule: Q04DX003 (ip), vehicle: saline 103 % of control

CC(=O)OC1CCC2(C)C3CCC4(C)C(CC5OC54C(C)=O)C3CC3OC32C1 (stereo unspecified)
inactive: endpoint: mean survival time, dose: 50.0 mg/kg/injection, schedule: Q01DX001 (sc), vehicle: steriod suspending solution 97 % of control | endpoint: mean survival time, dose: 100.0 mg/kg/injection, schedule: Q01DX001 (sc), vehicle: steriod suspending solution 101 % of control | endpoint: mean survival time, dose: 200.0 mg/kg/injection, schedule: Q01DX001 (sc), vehicle: steriod suspending solution 106 % of control | endpoint: mean survival time, dose: 400.0 mg/kg/injection, schedule: Q01DX001 (sc), vehicle: steriod suspending solution 113 % of control

O=c1ccn(-c2ccccc2)c(=S)[nH]1
inactive: endpoint: mean survival time, dose: 100.0 mg/kg/injection, schedule: Q01DX001 (ip), vehicle: saline with Tween-80 96 % of control | [6] 95 % of control | endpoint: mean survival time, dose: 200.0 mg/kg/injection, schedule: Q01DX001 (ip), vehicle: saline with Tween-80 96 % of control | [8] 95 % of control | endpoint: mean survival time, dose: 400.0 mg/kg/injection, schedule: Q01DX001 (ip), vehicle: saline with Tween-80 100 % of control

COc1ccc(C)cc1NC(=O)C1CC1
inactive: [17] 103 % of control | [18] 113 % of control | [19] 104 % of control

O=C(O)c1cccc2cccc(C3SCCS3)c12
inactive: [7] 101 % of control | [9] 104 % of control | [10] 90 % of control

COc1cc([N+](=O)[O-])c2ncccc2c1
inactive: endpoint: mean survival time, dose: 50.0 mg/kg/injection, schedule: Q01DX009 (ip), vehicle: Klucel (hydroxypropylcellulose) (HPC) 102 % of control | [17] 105 % of control | [11] 94 % of control | [18] 104 % of control | [12] 91 % of control | [19] 115 % of control | [13] 104 % of control

CN(C)CCC(c1ccccc1)c1nc(N)nc(C(CCN(C)C)c2ccccc2)n1 (stereo unspecified)
inactive: endpoint: mean survival time, dose: 50.0 mg/kg/injection, schedule: Q04DX002 (ip), vehicle: Klucel (hydroxypropylcellulose) (HPC) 102 % of control | [17] 115 % of control | endpoint: mean survival time, dose: 100.0 mg/kg/injection, schedule: Q04DX002 (ip), vehicle: Klucel (hydroxypropylcellulose) (HPC) 105 % of control

c1ccc2c(c1)OCC(CNC1CCCCC1)O2 (stereo unspecified)
inactive: endpoint: mean survival time, dose: 12.5 mg/kg/injection, schedule: Q04DX003 (ip), vehicle: saline with Tween-80 100 % of control | endpoint: mean survival time, dose: 25.0 mg/kg/injection, schedule: Q04DX003 (ip), vehicle: saline with Tween-80 94 % of control and 100 % of control | endpoint: mean survival time, dose: 50.0 mg/kg/injection, schedule: Q04DX003 (ip), vehicle: saline with Tween-80 94 % of control | [7] 98 % of control and 100 % of control

C=CCOC(=O)Nc1ccccc1
inactive: [4] 92 % of control and 90 % of control | [17] 106 % of control | [5] 93 % of control and 94 % of control | [18] 95 % of control | endpoint: mean survival time, dose: 300.0 mg/kg/injection, schedule: Q01DX001 (ip), vehicle: Klucel (hydroxypropylcellulose) (HPC) 97 % of control | [19] 101 % of control
